Entries after “also recorded” stand apart in the source; their conditions may differ.
What was measured:
[1] = test system: breast cancer associated with lung metastasis; test: Urinary alkalinization therapy, breast cancer patient with lung metastasis (person); format: in vivo, human
Procedure: A patient was diagnosed with breast cancer […] and underwent a surgical operation. In January, 2011, transfer of recurrent breast cancer to the lung was found. Administration of Taxotere (80 mg/m^2) was continued at the intervals of 3 weeks. […] Because of this, the dose of Taxotere was reduced to 60 mg/m^2 (intervals of 3 weeks).

[2] = test system: lung cancer; test: Urinary alkalinization therapy, lung cancer patient; format: in vivo, human
Excerpt: A patient successively underwent a surgery for breast cancer in March, 2009, a surgery for endometrial cancer in October, 2010 and a surgery for lung cancer (adenocarcinoma, upper right lobe) in December, 2011.
From January, 2012, application of a urinary alkalinization therapy, including orally administering magnesium oxide (laxative, Magmitt (manufactured by Kyowa Chemical Industry Co., Ltd.)) every day in a dose of 2 g per day after a meal three times (the dose being divided into three portions), was initiated.

[3] = test system: cancer cells; conditions: pHe shifted from acidic to alkaline range by gradually increasing the concentration in the serum; cited from earlier work
[4] = test system: B16 melanoma cells; conditions: aqueous solution 200 mmol/L (17 g/L) fed, with cancer immunotherapy by e.g. a cancer immunity-checkpoint inhibitor; vs water without sodium hydrogen carbonate; cited from earlier work
[5] = test system: gastric cancer (gastroesophageal junction cancer); conditions: cited from earlier work

For CC(=O)O[C@@]12CO[C@@H]1C[C@H](O)[C@@]1(C)C(=O)[C@H](O)C3=C(C)[C@@H](OC(=O)[C@H](O)[C@@H](NC(=O)OC(C)(C)C)c4ccccc4)C[C@@](O)([C@@H](OC(=O)c4ccccc4)[C@H]21)C3(C)C [Taxotere, docetaxel], the side effect ([1]; Taxotere alone 80 mg/m^2 every 3 weeks, six months) was “severe side effect” and the disease state ([1]; Taxotere alone reduced to 60 mg/m^2 every 3 weeks) was “the disease did not become stable”.
For [O]=[Mg] [magnesium oxide], the “urine pH value” ([2]; continuous oral administration, 2 g per day) was “kept in the alkaline pH range” and the “recurrence/metastasis, development of another cancer” value ([2]; oral, 2 g per day in three portions, every day from January, 2012, after surgeries) was “recurrence and metastasis of lung cancer have not been observed; also recorded: Neither development of another cancer nor recurrence/metastasis has been found”.
In the case of O=C([O-])O.[Na+] [sodium hydrogen carbonate], the “proliferation and invasion of cancer cells” value [3] is given as “the proliferation and invasion of cancer cells can be suppressed” and the antitumor effect [4] is given as “a significantly high antitumor effect is obtained”.
In the case of “Opdivo: immune checkpoint inhibitor containing anti-human PD-1 monoclonal antibody (nivolumab)”, the median overall survival ([5]; gastric cancer patients (gastroesophageal junction cancer), Lancet. 2017 Dec. 2, 390 (10111): 2461-2471) is given as “about 5.26 months” and the “tumor shrinkage and decrease of a tumor marker level” value ([5]; patients with end-stage gastric cancer) is given as “seldom confirmed”.

Source: patent US11622976B2, “Urine alkali agent useful for treatment of cancer patient” (Delta-Fly Pharma, Inc., priority 2018, dated 2023)
